This passage reports Kd results from article PMC8774231, “Point Mutations at a Key Site Alter the Cytochrome P450 OleP Structural Dynamics” (Biomolecules, 2021).

What all share (assay): UV-visible spectral titration, difference spectra, quadratic fit
What all share (assay type): binding

The target in experiment [1] is T1, cytochrome P450 OleP (Streptomyces antibioticus, UniProt Q59819, G92W).
T1 construct: recombinant His-tagged OleP mutants from pET28b(+)-OleP, expressed in E. coli BL21(DE3), monomer, heme-containing
T1 sequence (Q59819 1-407 G92W): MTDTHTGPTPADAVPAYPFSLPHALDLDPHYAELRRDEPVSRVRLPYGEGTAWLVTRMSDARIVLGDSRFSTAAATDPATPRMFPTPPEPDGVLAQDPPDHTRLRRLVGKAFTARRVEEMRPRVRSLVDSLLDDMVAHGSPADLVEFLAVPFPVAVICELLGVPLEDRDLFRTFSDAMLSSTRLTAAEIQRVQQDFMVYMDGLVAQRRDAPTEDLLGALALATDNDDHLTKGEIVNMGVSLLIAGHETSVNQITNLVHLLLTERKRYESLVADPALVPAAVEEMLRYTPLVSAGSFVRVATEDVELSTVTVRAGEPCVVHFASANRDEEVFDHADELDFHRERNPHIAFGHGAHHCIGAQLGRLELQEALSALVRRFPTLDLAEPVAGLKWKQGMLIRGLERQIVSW

The target of experiment [2] is T2, cytochrome P450 OleP (Streptomyces antibioticus, UniProt Q59819, E89Y).
T2 construct: recombinant His-tagged OleP mutants from pET28b(+)-OleP, expressed in E. coli BL21(DE3), monomer, heme-containing
T2 sequence (Q59819 1-407 E89Y): T1 sequence (Q59819 1-407 G92W)

Experiment [3] has as its target T3, cytochrome P450 OleP (Streptomyces antibioticus, UniProt Q59819, S240Y).
T3 construct: recombinant His-tagged OleP mutants from pET28b(+)-OleP, expressed in E. coli BL21(DE3), monomer, heme-containing
T3 sequence (Q59819 1-407 S240Y): T1 sequence (Q59819 1-407 G92W)

By Kd is commonly meant a measure of binding affinity in units of concentration. The low end stands for a tighter complex, the high end for a looser complex.

With `CC[C@H]1OC(=O)[C@H](C)[C@@H](O)[C@H](C)[C@@H](O)[C@@H](C)C[C@@H](C)C(=O)[C@H](C)[C@@H](O)[C@H]1C` [6DEB], the figures for the Kd on cytochrome P450 OleP [1], on cytochrome P450 OleP [2] and at cytochrome P450 OleP [3] were 1200 ± 100 nM, 8500 ± 800 nM and 700 ± 100 nM, respectively.
